Calls of active or inactive are those of the source. The rule behind the calls is not given here.
How the values were obtained:
L6 = test: Cytotoxicity against rat L6 cells assessed as growth inhibition after 72 hrs by inverted microscopy; type: cell-based; settings: L6, 72 h
[1] = target: Trypanothione reductase (Trypanosoma brucei brucei) (UniProt P39051); test: Induction of intrinsic oxidase activity of Trypanosoma brucei TR at 5 uM
[2] = Selectivity index, ratio of IC50 for rat L6 cells to IC50 for axenic amastigote form of Leishmania donovani strain MHOM-ET-67/L82; type: toxicity, cell-based; settings: read-out: Ratio IC50
[3] = Selectivity index, ratio of IC50 for rat L6 cells to IC50 for promastigote form of Leishmania donovani strain MHOM/SD/00/1S-2D; type: toxicity, cell-based; settings: read-out: Ratio IC50
[4] = Selectivity index, ratio of IC50 for rat L6 cells to IC50 for intracellular amastigote form of Trypanosoma cruzi Tulahuen strain C2C4; type: toxicity, cell-based; settings: read-out: Ratio IC50
[5] = Selectivity index, ratio of IC50 for rat L6 cells to IC50 for trypomastigote form of Trypanosoma brucei rhodesiense strain STIB 900; type: toxicity, cell-based; settings: read-out: Ratio IC50
Leishmania donovani [6] = test: Antitrypanosomal activity against promastigote form of Leishmania donovani MHOM/SD/00/1S-2D assessed as growth inhibition after 72 hrs by inverted microscopy; type: functional, organism-based
Leishmania donovani [7] = test: Antitrypanosomal activity against axenic amastigote form of Leishmania donovani MHOM-ET-67/L82 assessed as growth inhibition after 72 hrs by inverted microscopy; type: functional, organism-based; settings: MHOM-ET-67/L82, 72 h
Trypanosoma cruzi = test: Antitrypanosomal activity against intracellular amastigote form of Trypanosoma cruzi Tulahuen C2C4 infected in rat L6 cells assessed as growth inhibition after 92 hrs by inverted microscopy; type: functional, organism-based; settings: Tulahuen C2C4, L6, 92 h
[8] = system: Trypanosoma brucei rhodesiense; test: Antitrypanosomal activity against trypomastigote form of Trypanosoma brucei rhodesiense STIB 900 assessed as growth inhibition after 72 hrs by microplate fluorometry; type: functional, organism-based; settings: STIB 900, 72 h
[9] = target: Trypanothione reductase (Trypanosoma brucei brucei) (UniProt P39051); test: Inhibition of Trypanosoma brucei TR using 40 to 100 uM trypanothione disulfide assessed as remaining activity at 5 uM
Leishmania donovani [10] = test: Reduction in free cytoplasmic ATP level in promastigote form of Leishmania donovani 3-Luc at 2.5 to 25 uM after 15 to 20 mins by luminescence assay; type: functional, organism-based
Leishmania donovani [11] = test: Induction of morphological damage in promastigote form of Leishmania donovani MHOM/ET/67/L82 assessed as mitochondrial swelling at 5 uM after 4 hrs by transmission electron microscopy; type: functional, organism-based
Leishmania donovani [12] = test: Reduction in mitochondrial electrochemical potential in promastigote form of Leishmania donovani MHOM/ET/67/L82 assessed as reduction in Rhodamine 123 fluorescence at 25 uM after 4 hrs by flow cytometry; type: functional, organism-based
Trypanothione reductase [13] = target: T1, Trypanothione reductase (Trypanosoma brucei brucei, UniProt P39051); test: Mixed type inhibition of Trypanosoma brucei TR using varying levels of trypanothione disulfide assessed as inhibition constant for enzyme-substrate-inhibitor complex by Lineweaver-Burk plot
Trypanothione reductase [14] = target: T1, Trypanothione reductase; test: Mixed type inhibition of Trypanosoma brucei TR using varying levels of trypanothione disulfide assessed as inhibition constant for enzyme-inhibitor complex by Lineweaver-Burk plot
Trypanothione reductase [15] = target: T1, Trypanothione reductase; test: Noncompetitive inhibition of Trypanosoma brucei TR using varying levels of trypanothione disulfide by Lineweaver-Burk plot
Leishmania donovani [16] = test: Induction of morphological damage in promastigote form of Leishmania donovani MHOM/ET/67/L82 assessed as accumulation of vesicular material inside the flagellar pocket at 5 uM after 4 hrs by transmission electron microscopy; type: functional, organism-based

Trypanothione reductase (Trypanosoma brucei brucei), sequence (P39051 whole entry, looked up): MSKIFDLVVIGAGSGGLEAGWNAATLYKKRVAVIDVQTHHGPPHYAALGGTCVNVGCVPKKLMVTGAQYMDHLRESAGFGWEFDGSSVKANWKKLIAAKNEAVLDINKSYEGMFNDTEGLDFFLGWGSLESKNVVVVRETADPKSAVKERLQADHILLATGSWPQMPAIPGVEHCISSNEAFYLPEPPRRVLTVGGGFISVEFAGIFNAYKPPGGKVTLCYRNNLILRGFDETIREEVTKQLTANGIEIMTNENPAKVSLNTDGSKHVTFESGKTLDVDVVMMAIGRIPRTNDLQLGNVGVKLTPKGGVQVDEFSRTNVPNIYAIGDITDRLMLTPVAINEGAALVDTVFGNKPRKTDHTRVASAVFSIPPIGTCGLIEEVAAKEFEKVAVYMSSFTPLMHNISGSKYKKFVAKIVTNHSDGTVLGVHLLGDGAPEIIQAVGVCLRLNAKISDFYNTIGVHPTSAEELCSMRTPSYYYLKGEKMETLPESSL
T1 sequence (P39051 whole entry): as the sequence (P39051 whole entry, looked up) above

Row | Compound | IC50 (L6) [µM] | Activity [1] | selectivity ratio [2] | selectivity ratio [3] | selectivity ratio [4] | selectivity ratio [5] | IC50 (Leishmania donovani [6]) [µM] | IC50 (Leishmania donovani [7]) [µM] | IC50 (Trypanosoma cruzi) [µM] | IC50 [8] [µM] | Activity [9] [%] | Activity (Leishmania donovani [10]) | Activity (Leishmania donovani [11]) | Activity (Leishmania donovani [12]) | Ki (Trypanothione reductase [13]) [µM] | Ki (Trypanothione reductase [14]) [µM] | Ki (Trypanothione reductase [15]) [µM] | Activity (Leishmania donovani [16])
1 | COc1cc([C@@H]2c3cc4c(cc3[C@H](O)[C@H]3COC(=O)[C@H]23)OCO4)cc(OC)c1OC [PODOFILOX] | 0.0017 | – | – | – | – | – | – | – | – | – | – | – | – | – | – | – | – | –
2 | NCCCNCCCCNCc1ccc(OC2=CC(=O)c3cc4ccccc4cc3C2=O)cc1 | 6.29 | inactive | 2.01 | 0.41 | 0.16 | 27.4 | 15.4 | 3.13 | 39.4 | 0.23 | 36 | – | – | – | – | – | – | –
3 | NCCCCNCc1ccc(OC2=CC(=O)c3ccccc3C2=O)cc1 | 11.1 | – | 1.63 | 1.27 | 0.37 | 50.5 | 8.72 | 6.81 | 30 | 0.22 | – | – | – | – | – | – | – | –
4 | O=C1C=C(Oc2ccccc2)C(=O)c2cc3ccccc3cc21 | – | – | 2.91 | 0.35 | 0.21 | 19.8 | 2.81 | – | 4.66 | – | 51 | Dose-dependent effect | Active | Active | – | – | – | –
5 | NCCCNCCCNCCCNCc1ccc(OC2=CC(=O)c3ccccc3C2=O)cc1 | 6.46 | – | 0.89 | < 0.21 | 0.34 | 14 | > 30 | 7.27 | 18.8 | 0.46 | – | – | – | – | – | – | – | –
6 | O=C1C=C(Oc2ccccc2)C(=O)c2ccccc21 | – | – | 4.7 | 8 | 4.7 | 74 | 0.74 | – | 1.26 | – | 51 | – | – | – | – | – | – | –
7 | NCCCNCCCCNCCCNCc1ccc(OC2=CC(=O)c3cc4ccccc4cc3C2=O)cc1 | 7.21 | – | 2.15 | 0.45 | 0.21 | 22.5 | 16.1 | 3.35 | 34.8 | 0.32 | – | – | – | – | – | – | – | –
8 | NCCCCCNCc1ccc(OC2=CC(=O)c3cc4ccccc4cc3C2=O)cc1 | 5.04 | inactive | 2.06 | 1.39 | 0.29 | 72 | 3.62 | 2.44 | 17.4 | 0.07 | 36 | Dose-dependent effect | – | Active | 3.9 | 3.4 | 3.4 | Active
9 | NCCCCNCc1ccc(OC2=CC(=O)c3cc4ccccc4cc3C2=O)cc1 | 5.6 | inactive | 1.98 | 1.56 | 0.3 | 16 | 3.59 | 2.82 | 18.6 | 0.35 | 36 | – | – | – | – | – | – | –
10 | CCCCCCCCCCCCCCCCOP(=O)([O-])OCC[N+](C)(C)C [MILTEFOSINE] | 143 | – | 462 | – | – | – | – | – | – | – | – | – | – | – | – | – | – | –
11 | Nc1nc(N)nc(Nc2ccc([As]3SCC(CO)S3)cc2)n1 (stereo unspecified) [MELARSOPROL] | 18.3 | – | – | – | – | 1830 | – | – | – | – | – | – | – | – | – | – | – | –
12 | O=C(Cn1ccnc1[N+](=O)[O-])NCc1ccccc1 [BENZNIDAZOLE] | > 384 | – | – | – | – | – | – | – | – | – | – | – | – | – | – | – | – | –
13 | NCCCCCNCc1ccc(OC2=CC(=O)c3ccccc3C2=O)cc1 | 9.1 | Active | 1.37 | 1.18 | 0.45 | 35 | 7.72 | 6.63 | 20 | 0.26 | 36 | – | – | – | 4.6 | 2.8 | – | –
14 | NCCCNCCCNCCCNCc1ccc(OC2=CC(=O)c3cc4ccccc4cc3C2=O)cc1 | 4.87 | – | 2.03 | 0.53 | 0.29 | 20.3 | 9.08 | 2.4 | 17.4 | 0.24 | – | – | – | – | – | – | – | –
15 | NCCCNCCCCNCCCNCc1ccc(OC2=CC(=O)c3ccccc3C2=O)cc1 | 7.05 | Active | 1.22 | < 0.23 | 0.29 | 15.7 | > 30 | 5.79 | 24.1 | 0.45 | 36 | – | – | – | – | – | – | –
16 | NCCCNCCCCNCc1ccc(OC2=CC(=O)c3ccccc3C2=O)cc1 | 9.18 | – | 1.28 | < 0.31 | 0.18 | 12.8 | > 30 | 7.17 | 52.2 | 0.72 | – | – | – | – | – | – | – | –

Reference: ChEMBL document CHEMBL2176892, “Conjugation of quinones with natural polyamines: toward an expanded antitrypanosomatid profile” (J Med Chem, 2012)
